Test results reported in patent US5856127A, “Antimicrobial peptides” (The Research Foundation of State University of New York, priority 1996, dated 1999).
Where a SMILES comes first, the peptide text is derived from it.

What was measured:
[1] = tested on: Fusarium oxysporum; assay: MIC against fungal conidia (Fusarium oxysporum); assay type: cell-based; details: f. sp. lycopersici strain 73, PDAmb pH 5.2, scored at 6 days
Description: (§1) Dilutions of peptides, prepared in sterile deionized water, were placed (20 μl aliquots) in Corning disposable sterile polystyrene ELISA plates (96 well, high binding) which had been pretreated with bovine serum albumin by rinsing each well with 200 μl of a 1.0 mg/ml solution.
(§2) Media (PDAmb, pH 5.2) was prepared with deionized water, Difco potato dextrose broth (12 g/L), Sigma D,L-methionine (0.05 g/L), Sigma biotin (2 mg/L), and FisherBiotech low melting point agarose (20 g/L). Sterilized media was added to the wells to make a final volume of 100 μl and allowed to harden for 3 hr prior to inoculation with 10 μl of conidial suspension. Peptide concentrations tested were 0, 1.25, 2.5, 5, 10, 15, 20, 25, 50, 100, 150, 200, and 250 μM.
(§3) Fungal conidial suspensions were aseptically prepared from agar plate cultures of C. parasitica and S. musiva or liquid cultures for F. oxysporum f.sp. lycopersici. Conidia were suspended from agar plates with 10 ml sterile 1% Tween 20. All culture suspensions were filtered through four layers of sterile cheesecloth, collected in sterile 15 ml Falcon tubes, and centrifuged for 3 min at 1900×g. The pellets were then suspended in 10 ml sterile deionized water and centrifuged for 3 min at 1900×g. The "washed" pellets were suspended in 5 ml sterile deionized water. The conidial concentration was determined using a hemocytometer (Fisher ultra plane, Neubauer ruling) and then diluted to 1.0×10^4 conidia/ml.
(§4) Approximately 100 conidia (10 μl) were transferred to each microtitre plate well. Microtitre plates were incubated in ambient light at room temperature in a moist chamber (plastic box containing wet paper towels and covered with clear plastic wrap). Tests with S. musiva used continuous light. Plates were scored for growth at 6 days and photographed. All tests were repeated 4 or more times. Controls without peptides were included with all tests.

[2] = tested on: Septoria musiva; assay: MIC against fungal conidia (Septoria musiva); assay type: cell-based; details: strain 92-49C, PDAmb pH 5.2, scored at 6 days, total prevention of germination
Description: as §1, §2, §3, §4

[3] = tested on: Cryphonectria parasitica; assay: MIC against fungal conidia (Cryphonectria parasitica); assay type: cell-based; details: strain EP42, PDAmb pH 5.2, scored at 6 days
Description: as §1, §2, §3, §4

[4] = tested on: Salix lucida pollen; assay type: cell-based; details: pH 6.2
Description: Willow pollen was extracted using the protocol described by de Niella and Maynard (1993). Catkins were gently stirred in carbon tetrachloride. The pollen/carbon tetrachloride suspension was filtered (Whatman filter paper) with suction. The pollen was transferred to microfuge tubes (1.5 ml) with a fine-bristle artist's brush and stored at -20° C.
(§5) To rehydrate, small amounts of pollen were placed in open microfuge tubes (1.5 ml) which were placed into a closed glass petri dish with a dampened tissue. Pollen was rehydrated overnight in a dark chamber at 14° C.
(§6) Rehydrated plant pollen was diluted with sucrose-boric acid medium ("SBM") to a concentration of 80 grains/μl (Neubauer hemocytometer). Media for pollen germination (SBM, pH 6.2) was prepared with deionized distilled water, sucrose (150 g/L), and boric acid (150 mg/L). Dilutions of all peptides tested against rehydrated pollen grains were aseptically prepared with sterile SBM. Aliquots (50 μl) of peptide solutions were aseptically placed in ELISA microtitre plates as before. Approximately 400 pollen grains (5 μl) were added to the 50 μl volume of peptide solution in the well to give the final peptide concentrations of 0, 1.25, 2.5, 5, 10, 15, 20, 25, 50, 100, 150, 200, and 250 μM. Microtitre plates were incubated in the dark at room temperature for 24 hr. […] All tests were repeated 4 or more times. Controls without peptides were included with all tests. The highest concentration tested was 250 μM.

[5] = tested on: Castanea mollissima pollen; assay type: cell-based; details: pH 6.2
Description: (§7) Pollen collections for Chinese chestnut (Castanea mollissima), tomato (Lycopersicon esculentum), and willow (Salix lucida) clone 507 were made in central New York. Chestnut catkins and tomato flowers were placed into paper bags in an ice chest. Within 2 hr after collection, catkins were cut into 1.0 cm segments and tomato anthers were placed into sterile 15 ml Falcon tubes. The tubes were "capped" with parafilm punctured with 12-15 holes and lyophilized for 24 hr. Lyophilized samples were stored at -20°C. until removed for rehydration.
as §5, §6

[6] = tested on: selected filamentous fungi; assay: Activity against filamentous fungi relative to magainin (applicants' observation); assay type: cell-based; details: three amino acid substitution versus magainin
[7] = tested on: Erwinia amylovora; assay: MIC against bacteria (Erwinia amylovora); assay type: cell-based; details: Collection 88-100, no visible lawn or colonies after 3 days
Description: as §1
(§8) Bacterial suspensions of A. tumefaciens, E. amylovora, and P. syringae were obtained from liquid cultures grown in Luria Broth (Atlas and Parks 1993). Cultures were grown at 25°C. on a rotary shaker (110 rpm) for 14 hr. Bacterial cell suspensions with an optical density between 0.7 and 0.85 at 600 nanometers (OD600) were used for assay inoculations. Dilutions of peptides were placed in the 96-well ELISA plates as described above. The final peptide concentrations tested were 0, 0.625, 1.25, 2.5, 5, 10, 15, 20, 25, 50, 100, and 250 μM. All tests were repeated 2 or more times. Controls without peptides were included with all tests. The MIC for bacterial cells was the lowest peptide concentration associated with no visible bacterial lawn or isolated colonies on the medium after 3 days in all the repeated tests.

[8] = tested on: Pseudomonas syringae; assay: MIC against bacteria (Pseudomonas syringae); assay type: cell-based; details: Collection PSS34, no visible lawn or colonies after 3 days
Description: as §1, §8

[9] = tested on: bacteria; assay: Activity against bacteria relative to magainin (applicants' observation); assay type: cell-based; details: three amino acid substitution versus magainin
[10] = tested on: Agrobacterium tumefaciens; assay: MIC against bacteria (Agrobacterium tumefaciens); assay type: cell-based; details: wild-type strain Bo542, no visible lawn or colonies after 3 days
Description: as §1, §8

[11] = tested on: Candida albicans; details: against the yeast Candida albicans; cited from earlier work
[12] = tested on: microorganisms and animal red blood cells; details: cited from earlier work
[13] = tested on: Malus domestica pollen; assay type: cell-based; details: pH 6.2
Description: Apple (Malus domestica) cultivar "Empire" pollen was supplied by Susan Brown, Department of Horticultural Sciences, Cornell University, New York State Agricultural Experiment Station, Geneva, N.Y.
as §5, §6

[14] = tested on: Lycopersicon esculentum pollen; assay type: cell-based; details: pH 6.2
Description: as §7, §5, §6

[15] = tested on: Pseudomonas aeruginosa; details: against Pseudomonas aeruginosa; cited from earlier work
[16] = combined with either magainin I or magainin II in a 1:1 molar ratio; cited from earlier work

Molecule | MIC, Fusarium oxysporum [1] | MIC, Septoria musiva [2] | MIC, Cryphonectria parasitica [3] | MIC, Salix lucida [4] | MIC, Castanea mollissima [5] | further results
Magainin I | 15 µM | 5 µM | 10 µM |  |  | 
CSCC[C@H](N)C(=O)N[C@@H](C)C(=O)N[C@@H](C)C(=O)N[C@@H](CCCNC(=N)N)C(=O)N[C@@H](C)C(=O)N[C@@H](C)C(=O)NCC(=O)N[C@@H](CC(C)C)C(=O)N[C@@H](C)C(=O)N[C@@H](C)C(=O)N[C@@H](CCCNC(=N)N)C(=O)N[C@@H](CC(C)C)C(=O)N[C@@H](C)C(=O)N[C@@H](C)C(=O)N[C@@H](CC(C)C)C(=O)N[C@@H](C)C(=O)N[C@@H](CC(C)C)C(=O)N[C@@H](CCCNC(=N)N)C(=O)N[C@@H](C)C(=O)N[C@@H](CC(C)C)C(=O)O [ESF6] (H-MAARAAGLAARLAALALRAL-OH) |  |  |  | > 250 µM | > 250 µM | 
(Ala^8,13,15)magainin II [Ala^8,13,15 Magainin II] | 15 µM | 10 µM | 30 µM |  |  | change of magainin activity against selected filamentous fungi [6]: opposite effect; MIC, Erwinia amylovora [7]: 250 µM; MIC, Pseudomonas syringae [8]: 250 µM; change of magainin activity against bacteria [9]: increased magainin activity against bacteria; MIC, Agrobacterium tumefaciens [10]: 100 µM
XPF |  |  |  |  |  | times more effective than PGLa [11]: 2-2.5 times
CC[C@H](C)[C@H](NC(=O)CN)C(=O)NCC(=O)N[C@@H](C)C(=O)N[C@H](C(=O)N[C@@H](CC(C)C)C(=O)N[C@@H](CCCCN)C(=O)N[C@H](C(=O)N[C@@H](CC(C)C)C(=O)N[C@H](C(=O)N[C@H](C(=O)NCC(=O)N[C@@H](CC(C)C)C(=O)N1CCC[C@H]1C(=O)N[C@@H](C)C(=O)N[C@@H](CC(C)C)C(=O)N[C@H](C(=O)N[C@@H](CO)C(=O)N[C@@H](Cc1c[nH]c2ccccc12)C(=O)N[C@H](C(=O)N[C@@H](CCCCN)C(=O)N[C@@H](CCCNC(=N)N)C(=O)N[C@@H](CCCCN)C(=O)N[C@@H](CCCNC(=N)N)C(=O)N[C@@H](CCC(N)=O)C(=O)N[C@@H](CCC(N)=O)C(N)=O)[C@@H](C)CC)[C@@H](C)CC)[C@@H](C)O)[C@@H](C)O)C(C)C)C(C)C [melittin] |  |  |  |  |  | lytic activity [12]: very lytic
CSCC[C@H](N)C(=O)N[C@@H](C)C(=O)N[C@@H](CO)C(=O)N[C@@H](CCCNC(=N)N)C(=O)N[C@@H](C)C(=O)N[C@@H](C)C(=O)NCC(=O)N[C@@H](CC(C)C)C(=O)N[C@@H](C)C(=O)N[C@@H](C)C(=O)N[C@@H](CCCNC(=N)N)C(=O)N[C@@H](CC(C)C)C(=O)N[C@@H](C)C(=O)N[C@@H](CCCNC(=N)N)C(=O)N[C@@H](CC(C)C)C(=O)N[C@@H](C)C(=O)N[C@@H](CC(C)C)C(=O)N[C@@H](CCCNC(=N)N)C(=O)N[C@@H](C)C(=O)N[C@@H](CC(C)C)C(=O)O [ESF1] (H-MASRAAGLAARLARLALRAL-OH) |  |  |  | > 250 µM | > 250 µM | 
CSCC[C@H](N)C(=O)N[C@@H](C)C(=O)N[C@@H](CO)C(=O)N[C@@H](CCCNC(=N)N)C(=O)N[C@@H](C)C(=O)N[C@@H](C)C(=O)NCC(=O)N[C@@H](CC(C)C)C(=O)N[C@@H](C)C(=O)N[C@@H](CCCNC(=N)N)C(=O)N[C@@H](CCCNC(=N)N)C(=O)N[C@@H](CC(C)C)C(=O)N[C@@H](C)C(=O)N[C@@H](CCCNC(=N)N)C(=O)N[C@@H](CC(C)C)C(=O)N[C@@H](C)C(=O)N[C@@H](CCCNC(=N)N)C(=O)N[C@@H](CCCNC(=N)N)C(=O)N[C@@H](C)C(=O)N[C@@H](CC(C)C)C(=O)O [ESF5] (H-MASRAAGLARRLARLARRAL-OH) |  |  |  | > 250 µM | > 250 µM | 
CSCC[C@H](N)C(=O)N[C@@H](C)C(=O)N[C@@H](CO)C(=O)N[C@@H](CCCNC(=N)N)C(=O)N[C@@H](C)C(=O)N[C@@H](C)C(=O)NCC(=O)N[C@@H](CC(C)C)C(=O)N[C@@H](C)C(=O)N[C@@H](C)C(=O)N[C@@H](CCCNC(=N)N)C(=O)N[C@@H](CC(C)C)C(=O)N[C@@H](C)C(=O)N[C@@H](CCCNC(=N)N)C(=O)N[C@@H](CC(C)C)C(=O)N[C@@H](C)C(=O)N[C@@H](CC(C)C)C(=O)N[C@@H](CCCNC(=N)N)C(=O)O [ESF12] (H-MASRAAGLAARLARLALR-OH) |  |  |  | > 250 µM | > 250 µM | MIC, Malus domestica [13]: > 250 µM; MIC, Lycopersicon esculentum [14]: > 250 µM
PGLa |  |  |  |  |  | times more active than XPF [15]: 4-5 times; increase of antimicrobial activity [16]: 20-50 fold
cecropin B | 20 µM | 5 µM | 15 µM |  |  | 
